Results: ChEMBL document CHEMBL1799982, “Synthesis, protein kinase inhibitory potencies, and in vitro antiproliferative activities of meridianin derivatives” (J Med Chem, 2011)

Tests used:
[1] = target: Dual specificity protein kinase CLK1 (Homo sapiens, UniProt P49759)
[2] = test system: SH-SY5Y; assay: Antiproliferative activity against human SH-SY5Y cells by MTS reduction assay
[3] = test system: PA-1; assay: Antiproliferative activity against human PA1 cells after 48 hrs by resazurin reduction test; assay type: functional, cell-based; conditions: PA-1, 48 h
[4] = test system: IMR-32; assay: Antiproliferative activity against human IMR32 cells by MTS reduction assay
[5] = target: Glycogen synthase kinase-3 (Sus scrofa, UniProt B2LUN4+I6LNT8); assay: Inhibition of pig brain GSK-3alpha/beta using YRRAAVPPSPSLSRHSSPHQSpEDEEE as substrate
[6] = test system: DU-145; assay: Antiproliferative activity against human DU145 cells after 48 hrs by resazurin reduction test; assay type: functional, cell-based; conditions: DU-145, 48 h
[7] = target: Dual specificity tyrosine-phosphorylation-regulated kinase 1A (Rattus norvegicus, UniProt Q63470); assay: Inhibition of rat recombinant GST-tagged DYRK1A using myelin protein as substrate and [gamma32]-ATP after 30 mins by scintillation counting
[8] = Antiproliferative activity against human primary fibroblasts after 48 hrs by resazurin reduction test; assay type: cell-based; conditions: Fibroblast
[9] = target: Cyclin-dependent kinase 5/CDK5 activator 1 (Homo sapiens, UniProt Q00535); assay: Inhibition of human recombinant CDK5/p25 using Histone H1 and [gamma32]-ATP after 30 mins by scintillation counting; assay type: protein-complex assay
Cyclin-dependent kinase 5/CDK5 activator 1, sequence (Q00535 whole entry): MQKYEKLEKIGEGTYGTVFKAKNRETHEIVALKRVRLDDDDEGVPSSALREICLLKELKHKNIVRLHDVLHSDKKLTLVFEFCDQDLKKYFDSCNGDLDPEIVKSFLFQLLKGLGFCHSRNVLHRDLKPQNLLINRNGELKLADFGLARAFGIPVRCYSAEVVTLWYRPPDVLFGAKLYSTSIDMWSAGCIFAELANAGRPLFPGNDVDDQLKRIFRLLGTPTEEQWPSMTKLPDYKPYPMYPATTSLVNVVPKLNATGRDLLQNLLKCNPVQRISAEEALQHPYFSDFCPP
Cyclin-dependent kinase 5/CDK5 activator 1, sequence (Q15078 whole entry, further chain): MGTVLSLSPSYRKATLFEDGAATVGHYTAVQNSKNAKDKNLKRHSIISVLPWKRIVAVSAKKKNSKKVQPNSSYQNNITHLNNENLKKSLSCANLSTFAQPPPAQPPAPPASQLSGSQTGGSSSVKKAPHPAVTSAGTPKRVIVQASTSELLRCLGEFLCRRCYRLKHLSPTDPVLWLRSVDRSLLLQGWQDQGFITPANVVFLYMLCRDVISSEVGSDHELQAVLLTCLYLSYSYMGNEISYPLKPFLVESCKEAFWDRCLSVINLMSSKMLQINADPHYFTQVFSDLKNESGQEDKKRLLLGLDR

[10] = Inhibition of pig brain CK1 delta/epsilon using RRKHAAIGpSAYSITA as substrate; set-up: species or system Sus scrofa
[11] = test system: MCF7; assay: Antiproliferative activity against human MCF7 cells after 48 hrs by resazurin reduction test; conditions: MCF7, 48 h
[12] = test system: PC-3; assay: Antiproliferative activity against human PC3 cells after 48 hrs by resazurin reduction test; conditions: PC-3, 48 h
[13] = test system: HT-22; assay: Antiproliferative activity against mouse HT22 cells by MTS reduction assay

Dual specificity protein kinase CLK1, sequence (P49759 whole entry): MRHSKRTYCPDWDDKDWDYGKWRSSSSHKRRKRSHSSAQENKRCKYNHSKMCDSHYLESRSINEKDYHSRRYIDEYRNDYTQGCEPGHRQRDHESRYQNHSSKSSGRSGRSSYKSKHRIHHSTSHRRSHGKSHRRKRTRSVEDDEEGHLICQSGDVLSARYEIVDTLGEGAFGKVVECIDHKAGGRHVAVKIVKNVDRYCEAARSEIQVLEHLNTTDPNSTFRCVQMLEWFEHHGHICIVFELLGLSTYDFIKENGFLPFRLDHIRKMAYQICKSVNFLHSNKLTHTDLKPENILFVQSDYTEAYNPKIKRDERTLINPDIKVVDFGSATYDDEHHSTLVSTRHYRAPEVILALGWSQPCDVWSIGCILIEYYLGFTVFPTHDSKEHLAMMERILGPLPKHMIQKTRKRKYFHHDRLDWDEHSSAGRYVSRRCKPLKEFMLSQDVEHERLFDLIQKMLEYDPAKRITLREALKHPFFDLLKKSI

Structure (SMILES) | IC50 [1] | IC50 [2] | IC50 [3] | IC50 [4] | IC50 [5] | IC50 [6] | IC50 [7] | IC50 [8] | IC50 [9] | IC50 [10] | IC50 [11] | IC50 [12] | IC50 [13]
Nc1ncc(I)c(-c2c[nH]c3cc([N+](=O)[O-])ccc23)n1 | 0.067 µM | 12 µM | 2 µM | 10 µM | 2.6 µM | 6.3 µM | 0.095 µM | 13 µM | 1.6 µM | 1 µM | > 25 µM | 11 µM | 18 µM
Nc1ncc(I)c(-c2c[nH]c3cc(Br)ccc23)n1 | 0.032 µM | 3.2 µM | < 1 µM | 3.8 µM | 1.1 µM | < 1 µM | 0.034 µM | 3.5 µM | 0.68 µM | 0.7 µM | 5.2 µM | 2.9 µM | 5.1 µM
Nc1ncc(I)c(-c2c[nH]c3cccc(N)c23)n1 | 1 µM | > 10 µM | 18 µM | > 10 µM | > 10 µM | > 50 µM | 2.8 µM | > 50 µM | > 10 µM | > 10 µM | > 10 µM | > 50 µM | > 10 µM
Nc1ncc(I)c(-c2c[nH]c3ccc([N+](=O)[O-])cc23)n1 | 0.12 µM | > 25 µM | 8.4 µM | 10 µM | 0.66 µM | 13.3 µM | 0.25 µM | 19 µM | 1.6 µM | 0.42 µM | > 25 µM | 26 µM | 20 µM
Nc1ncc(I)c(-c2c[nH]c3c(Br)cccc23)n1 | 0.042 µM | 8 µM | 2 µM | 7.3 µM | 4 µM | 4.2 µM | 0.039 µM | 10 µM | 2.1 µM | 1.6 µM | 17 µM | 15 µM | 12 µM
Nc1ncc(I)c(-c2c[nH]c3c([N+](=O)[O-])cccc23)n1 | 0.041 µM | > 10 µM | 3.2 µM | > 10 µM | > 10 µM | 5.2 µM | 0.46 µM | 4.7 µM | > 10 µM | > 10 µM | > 10 µM | 6 µM | > 10 µM
Nc1ccc2[nH]cc(-c3nc(N)ncc3I)c2c1 | 0.61 µM | > 10 µM | 11 µM | > 10 µM | > 10 µM | 40 µM | 2.3 µM | 44 µM | > 10 µM | 0.27 µM | > 10 µM | 48 µM | > 10 µM
Nc1ccc2c(-c3nc(N)ncc3I)c[nH]c2c1 | 0.08 µM | > 10 µM | 13 µM | > 10 µM | 4.2 µM | 26 µM | 0.22 µM | 36 µM | 6.2 µM | 0.51 µM | > 10 µM | 47 µM | > 10 µM
CC(=O)c1ccc(-c2cnc(N)nc2-c2c[nH]c3c(Br)cccc23)cc1 | 0.38 µM | > 10 µM | 0.8 µM | > 10 µM | 4.5 µM | 5.7 µM | 0.29 µM | 18.4 µM | > 10 µM | > 10 µM | > 10 µM | 3.6 µM | > 10 µM
